Measured values taken from PubChem BioAssay (NCI).
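Exposure lasted 48 hours, with cells grown in 96-well plates and compounds tested at five concentrations. GI50: concentration for 50% inhibition of growth. TGI: total growth inhibition.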

What was measured:
Test in all cases: DTP human tumour cell line panel, 48 h
786-0 renal = test system: 786-0 renal
A498 renal = test system: A498 renal
A549 NSCLC = test system: A549 NSCLC
ACHN renal = test system: ACHN renal
BT-549 breast = test system: BT-549 breast
CCRF-CEM leukemia = test system: CCRF-CEM leukemia
COLO 205 colon = test system: COLO 205 colon
DU-145 prostate = test system: DU-145 prostate
EKVX NSCLC = test system: EKVX NSCLC
HCC-2998 colon = test system: HCC-2998 colon
HCT-116 colon = test system: HCT-116 colon
HCT-15 colon = test system: HCT-15 colon
HL-60(TB) leukemia = test system: HL-60(TB) leukemia
HOP-62 NSCLC = test system: HOP-62 NSCLC
HOP-92 NSCLC = test system: HOP-92 NSCLC
HS 578T breast = test system: HS 578T breast
HT29 colon = test system: HT29 colon
IGROV1 ovarian = test system: IGROV1 ovarian
K-562 leukemia = test system: K-562 leukemia
KM12 colon = test system: KM12 colon
LOX IMVI melanoma = test system: LOX IMVI melanoma
M14 melanoma = test system: M14 melanoma
MALME-3M melanoma = test system: MALME-3M melanoma
MCF7 breast = test system: MCF7 breast
MDA-MB-231 breast = test system: MDA-MB-231 breast
MDA-MB-435 = test system: MDA-MB-435
MOLT-4 leukemia = test system: MOLT-4 leukemia
NCI-H226 lung = test system: NCI-H226 lung
NCI-H23 lung = test system: NCI-H23 lung
NCI-H460 lung = test system: NCI-H460 lung
NCI-H522 lung = test system: NCI-H522 lung
NCI/ADR-RES ovarian = test system: NCI/ADR-RES ovarian
OVCAR-4 ovarian = test system: OVCAR-4 ovarian
OVCAR-5 ovarian = test system: OVCAR-5 ovarian
OVCAR-8 ovarian = test system: OVCAR-8 ovarian
PC-3 prostate = test system: PC-3 prostate
RPMI-8226 leukemia = test system: RPMI-8226 leukemia
RXF 393 renal = test system: RXF 393 renal
SF-268 CNS = test system: SF-268 CNS
SF-295 CNS = test system: SF-295 CNS
SF-539 CNS = test system: SF-539 CNS
SK-MEL-2 melanoma = test system: SK-MEL-2 melanoma
SK-MEL-28 melanoma = test system: SK-MEL-28 melanoma
SK-MEL-5 melanoma = test system: SK-MEL-5 melanoma
SK-OV-3 ovarian = test system: SK-OV-3 ovarian
SN12C renal = test system: SN12C renal
SNB-19 CNS = test system: SNB-19 CNS
SNB-75 CNS = test system: SNB-75 CNS
SR leukemia = test system: SR leukemia
SW-620 colon = test system: SW-620 colon
T-47D breast = test system: T-47D breast
TK-10 renal = test system: TK-10 renal
U251 CNS = test system: U251 CNS
UACC-257 melanoma = test system: UACC-257 melanoma
UACC-62 melanoma = test system: UACC-62 melanoma
UO-31 renal = test system: UO-31 renal

SMILES: Oc1ccc(CSc2nnc(-c3ccncc3)o2)c2cccnc12
- GI50 (786-0 renal): 3.81 µM
- TGI (786-0 renal): 70.2 µM
- GI50 (A498 renal): 2.64 µM
- TGI (A498 renal): 9.52 µM
- GI50 (A549 NSCLC): 0.767 µM
- TGI (A549 NSCLC): > 100 µM
- GI50 (ACHN renal): 2.28 µM
- TGI (ACHN renal): 8.31 µM
- GI50 (BT-549 breast): 1.71 µM
- TGI (BT-549 breast): > 100 µM
- GI50 (CCRF-CEM leukemia): 2.53 µM
- TGI (CCRF-CEM leukemia): > 100 µM
- GI50 (COLO 205 colon): 4.32 µM
- TGI (COLO 205 colon): > 100 µM
- GI50 (DU-145 prostate): 0.779 µM
- TGI (DU-145 prostate): > 100 µM
- GI50 (EKVX NSCLC): 2.74 µM
- TGI (EKVX NSCLC): > 100 µM
- GI50 (HCC-2998 colon): 3.38 µM
- TGI (HCC-2998 colon): > 100 µM
- GI50 (HCT-116 colon): 0.68 µM
- TGI (HCT-116 colon): > 100 µM
- GI50 (HCT-15 colon): 2.74 µM
- TGI (HCT-15 colon): > 100 µM
- GI50 (HL-60(TB) leukemia): 2.9 µM
- TGI (HL-60(TB) leukemia): 50.7 µM
- GI50 (HOP-62 NSCLC): 2.37 µM
- TGI (HOP-62 NSCLC): > 100 µM
- GI50 (HOP-92 NSCLC): 0.412 µM
- TGI (HOP-92 NSCLC): 2.73 µM
- GI50 (HS 578T breast): 0.751 µM
- TGI (HS 578T breast): 58.7 µM
- GI50 (HT29 colon): 3.46 µM
- TGI (HT29 colon): > 100 µM
- GI50 (IGROV1 ovarian): 3.33 µM
- TGI (IGROV1 ovarian): > 100 µM
- GI50 (K-562 leukemia): 0.622 µM
- TGI (K-562 leukemia): > 100 µM
- GI50 (KM12 colon): 3.9 µM
- TGI (KM12 colon): > 100 µM
- GI50 (LOX IMVI melanoma): 0.864 µM
- TGI (LOX IMVI melanoma): > 100 µM
- GI50 (M14 melanoma): 2.11 µM
- TGI (M14 melanoma): > 100 µM
- GI50 (MALME-3M melanoma): 2.03 µM
- TGI (MALME-3M melanoma): 6.88 µM
- GI50 (MCF7 breast): 0.403 µM
- TGI (MCF7 breast): > 100 µM
- GI50 (MDA-MB-231 breast): 1.89 µM
- TGI (MDA-MB-231 breast): 4.87 µM
- GI50 (MDA-MB-435): 0.613 µM
- TGI (MDA-MB-435): > 100 µM
- GI50 (MOLT-4 leukemia): 3.71 µM
- TGI (MOLT-4 leukemia): > 100 µM
- GI50 (NCI-H226 lung): 3.6 µM
- TGI (NCI-H226 lung): > 100 µM
- GI50 (NCI-H23 lung): 0.951 µM
- TGI (NCI-H23 lung): > 100 µM
- GI50 (NCI-H460 lung): 0.397 µM
- TGI (NCI-H460 lung): > 100 µM
- GI50 (NCI-H522 lung): 0.558 µM
- TGI (NCI-H522 lung): > 100 µM
- GI50 (NCI/ADR-RES ovarian): 3.95 µM
- TGI (NCI/ADR-RES ovarian): > 100 µM
- GI50 (OVCAR-4 ovarian): 3.19 µM
- TGI (OVCAR-4 ovarian): > 100 µM
- GI50 (OVCAR-5 ovarian): 3.54 µM
- TGI (OVCAR-5 ovarian): > 100 µM
- GI50 (OVCAR-8 ovarian): 0.62 µM
- TGI (OVCAR-8 ovarian): > 100 µM
- GI50 (PC-3 prostate): 0.626 µM
- TGI (PC-3 prostate): 9.34 µM
- GI50 (RPMI-8226 leukemia): 0.524 µM
- TGI (RPMI-8226 leukemia): 4.02 µM
- GI50 (RXF 393 renal): 2.41 µM
- TGI (RXF 393 renal): > 100 µM
- GI50 (SF-268 CNS): 2.18 µM
- TGI (SF-268 CNS): > 100 µM
- GI50 (SF-295 CNS): 1.75 µM
- TGI (SF-295 CNS): 8.32 µM
- GI50 (SF-539 CNS): 2.18 µM
- TGI (SF-539 CNS): > 100 µM
- GI50 (SK-MEL-2 melanoma): 2.11 µM
- TGI (SK-MEL-2 melanoma): 7.66 µM
- GI50 (SK-MEL-28 melanoma): 4.37 µM
- TGI (SK-MEL-28 melanoma): > 100 µM
- GI50 (SK-MEL-5 melanoma): 1.03 µM
- TGI (SK-MEL-5 melanoma): 2.63 µM
- GI50 (SK-OV-3 ovarian): 3.11 µM
- TGI (SK-OV-3 ovarian): 9.81 µM
- GI50 (SN12C renal): 0.619 µM
- TGI (SN12C renal): 6.13 µM
- GI50 (SNB-19 CNS): 1.47 µM
- TGI (SNB-19 CNS): > 100 µM
- GI50 (SNB-75 CNS): 1.52 µM
- TGI (SNB-75 CNS): 25.5 µM
- GI50 (SR leukemia): 2.21 µM
- TGI (SR leukemia): > 100 µM
- GI50 (SW-620 colon): 1.37 µM
- TGI (SW-620 colon): > 100 µM
- GI50 (T-47D breast): 3.08 µM
- TGI (T-47D breast): > 100 µM
- GI50 (TK-10 renal): 3.36 µM
- TGI (TK-10 renal): > 100 µM
- GI50 (U251 CNS): 0.494 µM
- TGI (U251 CNS): > 100 µM
- GI50 (UACC-257 melanoma): 2.61 µM
- TGI (UACC-257 melanoma): 8.38 µM
- GI50 (UACC-62 melanoma): 2.87 µM
- TGI (UACC-62 melanoma): > 100 µM
- GI50 (UO-31 renal): 1.83 µM
- TGI (UO-31 renal): > 100 µM
